# Assay results reported in paper PMC4865847, “Putative histidine kinase inhibitors with antibacterial effect against multi-drug resistant clinical isolates identified by in vitro and in silico screens” (Scientific Reports, 2016).
# Read-outs that look alike come from different tables or passages of the source.
# Assays:
# [1] = target: S. aureus PhoR (PhoR^S) (Staphylococcus aureus, UniProt Q2FXN7); assay: In vitro autophosphorylation kinase assay with γ-32P-ATP, PhoR^S; type: biochemical; settings: autophosphorylation, one time point (30 sec), 10% DMSO
# Chain of S. aureus PhoR (PhoR^S) (Q2FXN7 entry or part of it): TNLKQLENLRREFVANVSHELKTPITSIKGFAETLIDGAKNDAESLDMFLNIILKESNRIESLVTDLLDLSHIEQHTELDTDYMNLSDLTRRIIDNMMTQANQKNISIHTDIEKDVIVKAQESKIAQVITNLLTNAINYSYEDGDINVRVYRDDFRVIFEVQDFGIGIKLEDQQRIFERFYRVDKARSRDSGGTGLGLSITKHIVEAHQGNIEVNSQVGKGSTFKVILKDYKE
# Description: (§1) To evaluate the inhibitory capacity of selected hits from DSF, SBVS and LBSS in vitro autophosphorylation kinase assays with γ-^32P-ATP were performed as previously described. Ligands were dissolved in 100% DMSO. […] Controls lacking ligands contained an equal concentration of DMSO. Inhibition of autophosphorylation was determined by incubating 0.12 mg/ml (≈4 μM) HK and up to 20 mM fragment in kinase buffer (50 mM Tris HCl, pH 8.5, 50 mM KCl, 5 mM MgCl2, 0.5 mM EDTA and 0.1 mM DTT). Autophosporylation reactions were initiated by addition of 0.1 μCi/μl γ-^32P-ATP containing from 0.03 to 0.06 μM ATP (final concentrations). Autophosphorylation was quenched with 2xSDS-PAGE sample buffer supplemented with 50 mM EDTA. Samples were applied without heating to 15% (w/v) Tris-glycine SDS-polyacrylamide gels. After electrophoresis, the bottoms of the gels were removed to lower the background from the unincorporated radiolabeled ATP. Gels were dried without staining on a Bio-Rad Gel Air drying system and the phosphorylated protein was quantified by phosphor-imaging. Prism GraphPad was used for curve fitting and statistical analysis.
# [2] = target: T1, E. coli PhoR (PhoR^E) (Escherichia coli, UniProt P08400); assay: In vitro autophosphorylation kinase assay with γ-32P-ATP, PhoR^E; type: biochemical; settings: for IC50: autophosphorylation, one time point (30 sec), 10% DMSO; for inhibition at 2000 µM: 2 mM, 30 sec, compared to negative control
# T1 construct: The catalytic portion (DHp and CA domain) of E. coli PhoR (PhoR^E); made in house; host or cells: E. coli RIL
# T1 sequence (P08400 210-425): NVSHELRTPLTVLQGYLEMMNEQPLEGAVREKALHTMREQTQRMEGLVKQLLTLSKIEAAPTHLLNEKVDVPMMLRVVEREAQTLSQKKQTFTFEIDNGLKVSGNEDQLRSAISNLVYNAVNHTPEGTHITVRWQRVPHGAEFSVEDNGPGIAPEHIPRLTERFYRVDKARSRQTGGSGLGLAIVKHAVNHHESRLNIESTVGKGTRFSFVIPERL
# Description: as §1, with “Samples were applied without heating to 15% (w/v) Tris-glycine SDS-polyacrylamide gels.” left out
# [3] = target: T2, T. maritima HK853 (Thermotoga maritima, UniProt Q9WZV7); assay: In vitro autophosphorylation kinase assay with γ-32P-ATP, HK853; type: biochemical
# T2 sequence (Q9WZV7 232-489): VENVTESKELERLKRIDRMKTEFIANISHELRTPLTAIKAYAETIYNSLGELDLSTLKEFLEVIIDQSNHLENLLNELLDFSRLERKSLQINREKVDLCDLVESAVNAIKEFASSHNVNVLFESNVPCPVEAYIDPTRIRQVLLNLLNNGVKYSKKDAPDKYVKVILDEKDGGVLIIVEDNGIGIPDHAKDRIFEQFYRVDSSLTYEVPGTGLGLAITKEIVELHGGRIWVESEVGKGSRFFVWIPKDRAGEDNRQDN
# Description: as §1
# [4] = target: T3, S. pneumoniae WalK (Streptococcus pneumoniae, UniProt Q8DPL8); assay: In vitro autophosphorylation kinase assay with γ-32P-ATP, WalK; type: biochemical; settings: autophosphorylation, one time point (30 sec), 10% DMSO
# T3 construct: WalK (amino acids from 208 to 449); N-terminal His6-3C site of vector pOPINF (own knowledge of the vector); made in house; host or cells: E. coli RIL
# T3 sequence (Q8DPL8 208-449): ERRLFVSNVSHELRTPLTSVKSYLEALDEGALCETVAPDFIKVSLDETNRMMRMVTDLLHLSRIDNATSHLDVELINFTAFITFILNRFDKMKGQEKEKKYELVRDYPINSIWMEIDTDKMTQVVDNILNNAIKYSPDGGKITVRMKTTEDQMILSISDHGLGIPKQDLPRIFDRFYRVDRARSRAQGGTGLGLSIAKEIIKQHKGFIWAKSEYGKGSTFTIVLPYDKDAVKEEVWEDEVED
# Description: as §1, with “Samples were applied without heating to 15% (w/v) Tris-glycine SDS-polyacrylamide gels.” left out
# [5] = test system: Staphylococcus aureus; assay: Antibacterial susceptibility testing (MIC/MBC), S. aureus; type: cell-based; settings: for MIC / MBC: Staphylococcus aureus
# Description: (§2) Minimal inhibitory concentrations (MICs) were determined following a standard double-dilution method. […] For S. pneumoniae MICs were determined by adapting the standard double-dilution method to anaerobic conditions and of this microorganism (use of Todd Hewitt Yeast extract with 200 U/mL of catalase and continuous monitoring of growth).
# [6] = test system: Staphylococcus epidermidis; assay: Antibacterial susceptibility testing (MIC/MBC), S. epidermidis; type: cell-based
# Description: as §2
# [7] = test system: Escherichia coli; assay: Antibacterial susceptibility testing (MIC/MBC), E. coli; type: cell-based; settings: Escherichia coli
# Description: as §2
# [8] = Solubility in kinase buffer; type: physicochemical; settings: kinase buffer in the presence of 10% DMSO
# [9] = test system: Streptococcus suis; assay: Antibacterial susceptibility testing (MIC), S. suis; type: cell-based
# Description: (§3) Bacterial strains used in this study for antibacterial susceptibility testing (Table S5) were propagated using standard microbiological procedures. Minimal inhibitory concentrations (MICs) were determined following a standard double-dilution method. MICs were recorded as the lowest concentration of the compound where no visible growth was observed. After plating the dilutions around the MIC or growing them in fresh MH media, minimal bactericidal concentration (MBC) was recorded as the lowest concentration of the compound at which no colonies were formed or no growth was observed, respectively. For S. pneumoniae MICs were determined by adapting the standard double-dilution method to anaerobic conditions and of this microorganism (use of Todd Hewitt Yeast extract with 200 U/mL of catalase and continuous monitoring of growth).
# [10] = test system: Acinetobacter baumannii; assay: Antibacterial susceptibility testing (MIC), A. baumannii; type: cell-based; settings: MDR clinical isolate NM8, read-out: MIC A. baumannii NM8
# Description: as §3
# [11] = test system: Stenotrophomonas maltophilia; assay: Antibacterial susceptibility testing (MIC), S. maltophilia; type: cell-based; settings: clinical isolate B32/1, read-out: MIC S. maltophilia B32/1
# Description: as §3
# [12] = test system: Klebsiella pneumoniae; assay: Antibacterial susceptibility testing (MIC), K. pneumoniae; type: cell-based; settings: Klebsiella pneumoniae, ATCC700603, strain ATCC 700603
# Description: as §3
# [13] = test system: Pseudomonas aeruginosa; assay: Antibacterial susceptibility testing (MIC), P. aeruginosa; type: cell-based; settings: Pseudomonas aeruginosa, ATCC27853; strain ATCC 27853
# Description: as §3
# [14] = Hemolysis assay; type: cell-based; settings: human
# Description: Hemolytic activity against human erythrocytes taken from a healthy donor was measured as previously described. The hemolysis experiments were carried out in accordance with the guidelines of the United Arab Emirates University (UAEU) Research Ethics Review Board. All experimental protocols were approved by the Research Ethics Review Board of UAEU and informed consent was obtained from all donors.
# [15] = DSM20231, strain DSM 20231, read-out: MIC S. aureus DSM 20231
# [16] = Staphylococcus epidermidis, DSM20044, strain DSM 20044, read-out: MIC S. epidermidis DSM 20044
# [17] = strain CFT 073, read-out: MIC E. coli CFT 073
smiles,measurement,setting,value
CC(NC(=O)C1CC(=O)N(c2ccccc2)C1)c1cccc(NC(=O)c2ccccc2)c1 (centres unmarked) [S3],IC50,[1]; IC50 PhoR^S,> 5 mM
same,IC50,[2]; IC50 PhoR^E,> 5 mM
same,IC50,[3],> 5 mM
same,IC50,[4]; IC50 WalK,> 5 mM
same,MIC,[5]; [15],> 500 µg/mL
same,MIC,[6]; [16],> 500 µg/mL
same,MIC,[7]; [17],> 500 µg/mL
CNC(=O)NC(=O)CSc1nc2sc3c(c2c(=O)n1-c1ccccc1F)CCCC3 [S4],IC50,[1]; IC50 PhoR^S,> 5 mM
same,IC50,[2]; IC50 PhoR^E,> 5 mM
same,IC50,[3],> 5 mM
same,IC50,[4]; IC50 WalK,> 5 mM
same,MIC,[5]; [15],> 500 µg/mL
same,MIC,[6]; [16],> 500 µg/mL
same,MIC,[7]; [17],> 500 µg/mL
CC(NCc1cccc(F)c1)c1ccc2ccccc2c1 (centres unmarked) [S10],IC50,[1]; IC50 PhoR^S,> 5 mM
same,IC50,[2]; IC50 PhoR^E,> 5 mM
same,IC50,[3],> 5 mM
same,IC50,[4]; IC50 WalK,> 5 mM
same,MIC,[5]; [15],> 500 µg/mL
same,MIC,[6]; [16],> 500 µg/mL
same,MIC,[7]; [17],> 500 µg/mL
CC(NCc1cccc2ccccc12)c1ccc(F)cc1 (centres unmarked) [S8],IC50,[1]; read-out: IC50 PhoR^S,< 5 mM
same,IC50,[2]; IC50 PhoR^E,> 5 mM
same,IC50,[3],> 5 mM
same,IC50,[4]; IC50 WalK,> 5 mM
same,MIC,[5]; [15],> 500 µg/mL
same,MIC,[6]; [16],> 500 µg/mL
same,MIC,[7]; [17],> 500 µg/mL
c1ccc2cc(CNc3ccc4c(c3)OCCO4)ccc2c1 [S7],IC50,[1]; read-out: IC50 PhoR^S,< 5 mM
same,IC50,[2]; IC50 PhoR^E,> 5 mM
same,IC50,[3],> 5 mM
same,IC50,[4]; IC50 WalK,> 5 mM
same,MIC,[5]; [15],> 500 µg/mL
same,MBC S. aureus DSM 20231,[5]; strain DSM 20231,> 500 µg/mL
same,MIC,[6]; [16],> 500 µg/mL
same,MIC,[7]; [17],> 500 µg/mL
CC(OC(=O)c1cccc(S(=O)(=O)N2CCc3ccccc3C2)c1)C(=O)NC(N)=O (centres unmarked) [S2],IC50,[1]; IC50 PhoR^S,> 5 mM
same,IC50,[2]; IC50 PhoR^E,> 5 mM
same,IC50,[3],> 5 mM
same,IC50,[4]; IC50 WalK,> 5 mM
same,MIC,[5]; [15],> 500 µg/mL
same,MIC,[6]; [16],> 500 µg/mL
same,MIC,[7]; [17],> 500 µg/mL
Nc1ccc2c(c1)[nH]c1ccccc12 [F2.1],inhibition at 2000 µM,[2],> 50%
same,IC50,[2]; read-out: IC50 PhoR^E,0.24 mM
same,IC50,[4]; read-out: IC50 WalK,> 2 mM
same,MBC,"[5]; DSM20231, read-out: MBC S. aureus DSM 20231",> 500 µg/mL
same,MIC,"[5]; DSM20231, read-out: MIC S. aureus DSM 20231",8 µg/mL
same,MIC,"[6]; Staphylococcus epidermidis, DSM20044, read-out: MIC S. epidermidis DSM 20044",> 500 µg/mL
same,MIC,[7]; read-out: MIC E. coli CFT 073,> 500 µg/mL
same,solubility in kinase buffer,[8],good solubility
Oc1cccc2[nH]c3ccccc3c12 [F2.8],inhibition at 2000 µM,[2],> 50%
same,IC50,[2]; read-out: IC50 PhoR^E,0.72 mM
same,IC50,[4]; read-out: IC50 WalK,> 2 mM
same,MIC,"[5]; ATCC reference strain 25293, read-out: MIC S. aureus 25293",250 µg/mL
same,MBC,"[5]; DSM20231, strain DSM 20231, read-out: MBC S. aureus DSM 20231",63 µg/mL
same,MIC,[5]; [15],31 to 250 µg/mL
same,MIC,"[5]; MRSA clinical isolate 127/08, read-out: MIC S. aureus 127/08",250 µg/mL
same,MIC,"[5]; MRSA clinical isolate 145/08, read-out: MIC S. aureus 145/08",250 µg/mL
same,MIC,"[5]; MRSA clinical isolate 274/08, read-out: MIC S. aureus 274/08",250 µg/mL
same,MIC,"[5]; MRSA, MRSA clinical isolate T4/6, read-out: MIC S. aureus T4/6",250 µg/mL
same,MIC,"[5]; MRSA, MRSA clinical isolate V4180, read-out: MIC S. aureus V4180",250 µg/mL
same,MIC,"[5]; MRSA, summary over strains, read-out: MICs for the MRSA strains and S. aureus 25293",125 to 500 µg/mL
same,MIC S. aureus DSM 20231,[5]; strain DSM 20231,31 µg/mL
same,MBC,"[6]; Staphylococcus epidermidis, DSM20044, strain DSM 20044",250 µg/mL
same,MIC,[6]; [16],31 to 500 µg/mL
same,MIC,"[6]; Staphylococcus epidermidis, clinical isolate T7/3, read-out: MIC S. epidermidis T7/3",63 µg/mL
same,MIC,"[6]; Staphylococcus epidermidis, clinical isolate T37/8, read-out: MIC S. epidermidis T37/8",250 µg/mL
same,MIC,"[6]; Staphylococcus epidermidis, clinical isolate T6119, read-out: MIC S. epidermidis T6119",250 µg/mL
same,MIC,"[6]; Staphylococcus epidermidis, strain RP62A (biofilm producer), read-out: MIC S. epidermidis RP62A",250 µg/mL
same,MIC,"[6]; Staphylococcus epidermidis, strain RP62A/1 (non-biofilm producer), read-out: MIC S. epidermidis RP62A/1",250 µg/mL
same,MIC,"[6]; Staphylococcus epidermidis, summary over strains, read-out: MICs for the S. epidermidis strains",31 to 250 µg/mL
same,MIC S. epidermidis DSM 20044,[6]; strain DSM 20044,31 µg/mL
same,MIC,"[7]; ATCC25276, strain ATCC 25276, read-out: MIC E. coli ATCC 25276",500 µg/mL
same,MBC,"[7]; strain CFT 073, read-out: MBC E. coli CFT 073",500 µg/mL
same,MIC,"[7]; summary over E. coli strains, read-out: antibacterial effects (MIC) against E. coli",≥ 63 µg/mL
same,MIC,"[9]; Streptococcus suis, read-out: MIC Streptococcus suis 3881/S10, strain 3881/S10",250 µg/mL
same,MIC Streptococcus suis 3881/S10,[9]; strain 3881/S10,125 µg/mL
same,MIC,[10],> 500 µg/mL
same,MIC,[11],> 500 µg/mL
same,MIC,[12],250 µg/mL
same,MIC,[13],> 500 µg/mL
same,HC50,[14],> 500 µg/mL
same,solubility in kinase buffer,[8],good solubility
O=C(CCN1c2ccccc2Sc2ccccc21)OCc1cc(=O)n2ccsc2n1 [S1],IC50,[1]; IC50 PhoR^S,> 5 mM
same,IC50,[2]; IC50 PhoR^E,> 5 mM
same,IC50,[3],> 5 mM
same,IC50,[4]; IC50 WalK,> 5 mM
same,MIC,[5]; [15],> 500 µg/mL
same,MIC,[6]; [16],> 500 µg/mL
same,MIC,[7]; [17],> 500 µg/mL
CC(NCc1cccc2ccccc12)c1cccc(F)c1 (centres unmarked) [S9],IC50,[1]; IC50 PhoR^S,> 5 mM
same,IC50,[2]; IC50 PhoR^E,> 5 mM
same,IC50,[3],> 5 mM
same,IC50,[4]; IC50 WalK,> 5 mM
same,MIC,[5]; [15],> 500 µg/mL
same,MIC,[6]; [16],> 500 µg/mL
same,MIC,[7]; [17],> 500 µg/mL
